This passage reports melting temperature results from publication PMC6876276 (Cell Chemical Biology, 2019).

The structures appear in SMILES notation.

In this assay the target is T1, SHMT1 (Homo sapiens, UniProt P34896).
T1 sequence (P34896 2-483): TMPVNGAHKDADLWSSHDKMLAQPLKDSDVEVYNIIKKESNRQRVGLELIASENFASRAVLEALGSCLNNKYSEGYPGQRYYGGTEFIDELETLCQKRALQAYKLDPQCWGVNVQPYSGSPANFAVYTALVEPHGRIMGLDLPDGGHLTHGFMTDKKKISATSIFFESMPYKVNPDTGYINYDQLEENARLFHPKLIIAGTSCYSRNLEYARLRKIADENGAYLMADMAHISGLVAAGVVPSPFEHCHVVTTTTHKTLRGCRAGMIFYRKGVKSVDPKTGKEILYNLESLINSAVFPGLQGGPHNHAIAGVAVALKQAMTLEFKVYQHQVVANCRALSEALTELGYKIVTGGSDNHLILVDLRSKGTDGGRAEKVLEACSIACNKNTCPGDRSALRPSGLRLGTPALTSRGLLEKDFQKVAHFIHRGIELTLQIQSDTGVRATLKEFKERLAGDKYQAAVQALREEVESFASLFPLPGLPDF
Nature of the assay: thermal shift assay, SYPRO orange. Format: binding. The following applies: 2 μM apo-SHMT1, SEC buffer; covalent internal aldimine (reversible).

As for `Cc1ncc(COP(=O)(O)O)c(C=O)c1O` [PLP, pyridoxal 5′-phosphate], the melting temperature entry is recorded as “selective increase in melting temperature of apo-SHMT1 upon incubation with increasing PLP amounts”.
